The text below walks through data of BindingDB's records for doi:10.7270/Q2251GJ9 (The Scripps Research Institute Molecular Screening Center, 2007).

Molecules are shown by their SMILES. Bounds are passed on as bounds.

The target in the first assay is Sphingosine 1-phosphate receptor 1 (Homo sapiens, UniProt P21453). Description: direct activation of human S1P1 – cell-based, agonist mode, 60K MLSMR set, dose response (AID 468).
Chain of Sphingosine 1-phosphate receptor 1 (P21453 whole entry): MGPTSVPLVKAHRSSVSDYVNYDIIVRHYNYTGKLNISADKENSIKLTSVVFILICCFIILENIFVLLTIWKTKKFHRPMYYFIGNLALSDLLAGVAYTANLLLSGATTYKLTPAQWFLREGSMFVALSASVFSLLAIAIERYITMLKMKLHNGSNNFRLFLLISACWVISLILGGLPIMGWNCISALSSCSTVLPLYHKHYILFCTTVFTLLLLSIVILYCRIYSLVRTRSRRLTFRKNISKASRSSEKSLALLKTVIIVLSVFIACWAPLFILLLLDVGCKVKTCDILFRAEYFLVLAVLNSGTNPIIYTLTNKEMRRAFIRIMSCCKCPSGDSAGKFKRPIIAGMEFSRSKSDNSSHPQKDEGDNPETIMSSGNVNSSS
Details: not given
`CCC(C)c1ccc2oc(-c3ccc(NC(=O)Cn4cnc5c(=O)n(C)c(=O)n(C)c54)cc3)nc2c1` (stereo not given) [2-(2,6-diketo-1,3-dimethyl-purin-9-yl)-N-[4-(5-sec-butyl-1,3-benzoxazol-2-yl)phenyl]acetamide] showed an EC50 of 2.02 µM.
With `Clc1ccc(OCc2nnc(-c3ccccc3Br)o2)c(Cl)c1` [2-(2-bromophenyl)-5-[(2,4-dichlorophenoxy)methyl]-1,3,4-oxadiazole], the concentration giving a half-maximal response (EC50) is above 95 µM.
The same measure, in the same setting: next, `CC(C)COC(=O)NCCOC(=O)Nc1cccc(Cl)c1` [2-(2-methylpropoxycarbonylamino)ethyl N-(3-chlorophenyl)carbamate]: 6.17 µM; `O=C(CSCC(=O)N1CCCCC1)Nc1nc(-c2cccs2)cs1` [2-(2-oxidanylidene-2-piperidin-1-yl-ethyl)sulfanyl-N-(4-thiophen-2-yl-1,3-thiazol-2-yl)ethanamide]: above 30 µM.
The same measure, in the same setting: the figure for `CCOc1ccc(-c2nnc(-c3ccco3)o2)cc1OCC` [2-(3,4-Diethoxy-phenyl)-5-furan-2-yl-[1,3,4]oxadiazole] is 1.18 µM; for `CCOc1ccc(-c2nnc(-c3cccs3)o2)cc1OCC` [2-(3,4-Diethoxy-phenyl)-5-thiophen-2-yl-[1,3,4]oxadiazole] it is 5.93 µM.
Consider `CCOc1ccc(-c2nnc(-c3cccnc3)o2)cc1OCC` [2-(3,4-diethoxyphenyl)-5-(3-pyridinyl)-1,3,4-oxadiazole], for which the concentration for a half-maximal effect (EC50) is 3.28 µM.
Turning to `Cn1c(C(=O)N2CCc3ccccc3C2)cc2oc3ccccc3c21` [2-(3,4-dihydroisoquinolin-2(1H)-ylcarbonyl)-1-methyl-1H-[1]benzofuro[3,2-b]pyrrole], the EC50 is above 30 µM.
In the case of `COc1ccc(-c2nc3cc(NC(=O)Cc4ccc(OC)c(OC)c4)ccc3o2)cc1` [2-(3,4-dimethoxyphenyl)-N-[2-(4-methoxyphenyl)-1,3-benzoxazol-5-yl]acetamide], the response was half-maximal at 8.03 µM (EC50).
`O=C1C2CCCN2C(c2cccnc2)N1c1cccc(Cl)c1` (stereo not given) [2-(3-chlorophenyl)-3-(3-pyridinyl)-5,6,7,7a-tetrahydro-3H-pyrrolo[1,2-c]imidazol-1-one] showed a concentration for a half-maximal effect (EC50) above 95.1 µM.
On the same count and under the same terms, the figure for `COc1ccccc1Oc1ccc2c(c1)C(=O)N(c1cccc(O)c1)C2=O` [2-(3-hydroxyphenyl)-5-(2-methoxyphenoxy)isoindole-1,3-dione] is 2.36 µM; for `O=C(CSC1=NCCS1)Nc1ccnc2ccccc12` [2-(4,5-dihydro-1,3-thiazol-2-ylsulfanyl)-N-quinolin-4-yl-ethanamide] it is 2.44 µM; for `O=C(CSc1ncnc2c1oc1ccccc12)N1CCCc2ccccc21` [2-(4-benzofuro[3,2-d]pyrimidinylthio)-1-(3,4-dihydro-2H-quinolin-1-yl)ethanone] it is above 3 µM.
For `N#Cc1nc(-c2ccc(OCc3ccccc3)cc2)oc1NCc1cccnc1` [2-(4-benzoxyphenyl)-5-(3-pyridylmethylamino)oxazole-4-carbonitrile], the EC50 stood at 7.92 µM.
Take `CN(C)c1oc(-c2ccc(OCc3ccccc3)cc2)nc1C#N` [2-(4-benzoxyphenyl)-5-(dimethylamino)oxazole-4-carbonitrile]: the midpoint of the response, the EC50, lay at 3.22 µM. This EC50 lies about 2.5-fold lower than the previous one.
The molecule `CNc1oc(-c2ccc(OCc3ccccc3)cc2)nc1C#N` [2-(4-benzoxyphenyl)-5-(methylamino)oxazole-4-carbonitrile] yielded a half-maximal effective concentration (EC50) of 3.21 µM. The EC50 values of the last two molecules are within 1.5-fold of each other.
In the case of `COc1ccccc1Oc1ccc2c(c1)C(=O)N(c1ccc(O)cc1)C2=O` [2-(4-hydroxyphenyl)-5-(2-methoxyphenoxy)isoindole-1,3-dione], the midpoint of the response, the EC50, lay at 0.217 µM.
In turn, `CCCOc1ccc(-c2nnc(-c3ccncc3)o2)cc1` [2-(4-propoxyphenyl)-5-(4-pyridyl)-1,3,4-oxadiazole] gave a concentration for a half-maximal effect (EC50) above 95 µM.
Molecule `O=C(CSc1nnc(Cn2nnc3ccccc32)o1)N(Cc1ccc(F)cc1)c1ccccc1` [2-(5-Benzotriazol-1-ylmethyl-[1,3,4]oxadiazol-2-ylsulfanyl)-N-(4-fluoro-benzyl)-N-phenyl-acetamide] registered a half-maximal effective concentration (EC50) of 5.09 µM. This counts as single-digit micromolar.
On the same count and under the same terms, the figure for `COC(=O)c1ccc2c(=O)n(C3CCCCC3)c(SCC#N)nc2c1` [2-(cyanomethylthio)-3-cyclohexyl-4-keto-quinazoline-7-carboxylic acid methyl ester] is 9.9 µM; for `CCOC(=O)c1sc2nc(NC(=O)C3CCCCC3)sc2c1C` [2-(cyclohexanecarbonylamino)-6-methyl-thieno[2,3-d]thiazole-5-carboxylic acid ethyl ester] it is above 30 µM.
Consider `CCCCNc1cc(C)nc(NCc2ccccc2)n1` [2-N-benzyl-4-N-butyl-6-methylpyrimidine-2,4-diamine], for which the half-maximal effective concentration (EC50) was determined as 4.83 µM.
The same measure, in the same setting: next, `COc1ccc(-n2nnnc2S(=O)(=O)CC(=O)N2CCCCC2)cc1` [2-[1-(4-methoxyphenyl)tetrazol-5-yl]sulfonyl-1-piperidin-1-ylethanone]: 5.25 µM; `Cc1cc(C(=O)CSc2nc3ccccc3c(=O)n2C)c(C)n1Cc1ccc2c(c1)OCO2` [2-[2-[1-(1,3-benzodioxol-5-ylmethyl)-2,5-dimethyl-pyrrol-3-yl]-2-oxidanylidene-ethyl]sulfanyl-3-methyl-quinazolin-4-one]: 5.41 µM.

Staying with this assay, now noted: inactive by the depositor's call.
Molecule `CCOC(=O)c1ccc2nc(NC(=O)c3ccco3)sc2c1` [2-(2-furoylamino)-1,3-benzothiazole-6-carboxylic acid ethyl ester] gave an EC50 of 16.3 µM.
Still for that read-out and setting: next, `O=S(=O)(CCSc1ccccn1)c1nc2ccccc2s1` [2-(2-pyridin-2-ylsulfanylethylsulfonyl)-1,3-benzothiazole]: 10.4 µM.
Still for that read-out and setting: next, `Cc1cc(C)n(-c2nc3ccccc3c(=O)n2OCCOc2ccccc2)n1` [2-(3,5-dimethyl-1-pyrazolyl)-3-(2-phenoxyethoxy)-4-quinazolinone]: 20 µM; `Clc1ccc(-c2nc3nc4ccccc4nc3n2Cc2ccco2)cc1` [2-(4-chlorophenyl)-3-(2-furanylmethyl)imidazo[4,5-b]quinoxaline]: 25.3 µM.
The same measure, in the same setting: the figure for `c1ccc(CSc2nnc(-c3cccs3)o2)cc1` [2-(benzylthio)-5-(2-thienyl)-1,3,4-oxadiazole] is 20.9 µM; for `CCOc1nc(-c2ccccc2)ccc1-c1noc(-c2ccco2)n1` [2-Ethoxy-3-(5-furan-2-yl-[1,2,4]oxadiazol-3-yl)-6-phenyl-pyridine] it is 16.8 µM.
On to `CN1CCN(C(=O)CSc2nc(-c3cccs3)cc(-c3cccs3)c2C#N)CC1` [2-[2-(4-methylpiperazin-1-yl)-2-oxidanylidene-ethyl]sulfanyl-4,6-dithiophen-2-yl-pyridine-3-carbonitrile], for which the EC50 is 10.1 µM.
`Cc1cc(C(=O)CN2C(=O)c3ccccc3C2=O)c(C)n1Cc1cccs1` [2-[2-[2,5-dimethyl-1-(2-thenyl)pyrrol-3-yl]-2-keto-ethyl]isoindoline-1,3-quinone] had an EC50 of 17.4 µM.
Same read-out and setting: the figure for `CCOC(=O)Cc1csc(NC(=O)c2ccc(Br)s2)n1` [2-[2-[(5-bromothiophene-2-carbonyl)amino]thiazol-4-yl]acetic acid ethyl ester] is 13.8 µM; for `CC1CCN(S(=O)(=O)c2ccc3c(c2)oc(=O)n3CC(=O)NCc2ccc3c(c2)OCO3)CC1` [2-[2-keto-6-(4-methylpiperidino)sulfonyl-1,3-benzoxazol-3-yl]-N-piperonyl-acetamide] it is 12.2 µM.
The same measure, in the same setting: the figure for `COc1ccc(OCCCSc2ncccn2)cc1` [2-[3-(4-methoxyphenoxy)propylsulfanyl]pyrimidine] is 57.3 µM.
